Measurements taken from PubChem BioAssay AID248 (DTP/NCI, 2004).
Where “and” joins values, the source holds several entries; their conditions need not be identical. Equal entries are not always repeated. Toxic doses and inconclusive results are not listed. No stated cut-off is given here; in the data, active means T/C of 150% or more; inactive means T/C below 125%.

System: L1210 leukemia ip in BDF1 mice, survival T/C
Test: NCI In Vivo Anticancer Drug Screen. Data for tumor model L1210 Leukemia (intraperitoneal) in B6D2F1 (BDF1) mice
Conditions: endpoint: mean survival time, higher = longer survival
Method in brief: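 Transplantable tumor model; survival measured in treated vs vehicle control mice. Value = treated/control.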

[1] = dose: 100.0 mg/kg/injection, schedule: Q04DX002 (ip), vehicle: Klucel (hydroxypropylcellulose) (HPC)
[2] = dose: 200.0 mg/kg/injection, schedule: Q04DX002 (ip), vehicle: Klucel (hydroxypropylcellulose) (HPC)
[3] = dose: 100.0 mg/kg/injection, schedule: Q01DX001 (ip), vehicle: carboxymethylcellulose (CMC)
[4] = dose: 100.0 mg/kg/injection, schedule: Q01DX009 (ip), vehicle: saline with Tween-80
[5] = dose: 200.0 mg/kg/injection, schedule: Q01DX001 (ip), vehicle: carboxymethylcellulose (CMC)
[6] = dose: 200.0 mg/kg/injection, schedule: Q01DX009 (ip), vehicle: saline with Tween-80
[7] = dose: 200.0 mg/kg/injection, schedule: Q04DX003 (ip), vehicle: saline with Tween-80
[8] = dose: 400.0 mg/kg/injection, schedule: Q01DX001 (ip), vehicle: carboxymethylcellulose (CMC)
[9] = dose: 400.0 mg/kg/injection, schedule: Q04DX003 (ip), vehicle: saline with Tween-80
[10] = dose: 100.0 mg/kg/injection, schedule: Q01DX001 (ip), vehicle: saline with Tween-80
[11] = dose: 200.0 mg/kg/injection, schedule: Q01DX001 (ip), vehicle: saline with Tween-80
[12] = dose: 400.0 mg/kg/injection, schedule: Q01DX001 (ip), vehicle: saline with Tween-80
[13] = dose: 25.0 mg/kg/injection, schedule: Q01DX009 (ip), vehicle: water
[14] = dose: 50.0 mg/kg/injection, schedule: Q01DX009 (ip), vehicle: water
[15] = dose: 100.0 mg/kg/injection, schedule: Q01DX009 (ip), vehicle: water
[16] = dose: 100.0 mg/kg/injection, schedule: Q01DX009 (ip), vehicle: saline
[17] = dose: 200.0 mg/kg/injection, schedule: Q01DX009 (ip), vehicle: saline
[18] = dose: 400.0 mg/kg/injection, schedule: Q01DX009 (ip), vehicle: saline
[19] = dose: 50.0 mg/kg/injection, schedule: Q01DX009 (ip), vehicle: saline
[20] = dose: 100.0 mg/kg/injection, schedule: Q04DX003 (ip), vehicle: saline with Tween-80
[21] = dose: 100.0 mg/kg/injection, schedule: Q04DX003 (ip), vehicle: Klucel (hydroxypropylcellulose) (HPC)
[22] = dose: 200.0 mg/kg/injection, schedule: Q04DX003 (ip), vehicle: Klucel (hydroxypropylcellulose) (HPC)
[23] = dose: 400.0 mg/kg/injection, schedule: Q04DX003 (ip), vehicle: Klucel (hydroxypropylcellulose) (HPC)
[24] = dose: 100.0 mg/kg/injection, schedule: Q01DX009 (ip), vehicle: Klucel (hydroxypropylcellulose) (HPC)
[25] = dose: 200.0 mg/kg/injection, schedule: Q01DX009 (ip), vehicle: Klucel (hydroxypropylcellulose) (HPC)
[26] = dose: 400.0 mg/kg/injection, schedule: Q01DX009 (ip), vehicle: Klucel (hydroxypropylcellulose) (HPC)
[27] = dose: 100.0 mg/kg/injection, schedule: Q01DX001 (ip), vehicle: saline
[28] = dose: 200.0 mg/kg/injection, schedule: Q01DX001 (ip), vehicle: saline
[29] = dose: 400.0 mg/kg/injection, schedule: Q01DX001 (ip), vehicle: saline

Measured: T/C

N#CC(Nc1cc(=O)[nH]c(=O)[nH]1)c1ccccc1 (stereo not drawn)
inactive: [1] 105 % of control | [2] 108 % of control

COc1ccc2nccc(C=O)c2c1
inactive: dose: 50.0 mg/kg/injection, schedule: Q01DX001 (ip), vehicle: carboxymethylcellulose (CMC) 108 % of control | [3] 102 % of control | [4] 101 % of control | [5] 102 % of control | [6] 95 % of control | [7] 101 % of control | [8] 96 % of control | [9] 89 % of control

CC(=O)Oc1c2ccsc2cc2ccsc12
inactive: [10] 100 % of control | [11] 96 % of control | [12] 96 % of control

NC(=O)OCc1c(O)c2c(c(O)c1COC(N)=O)C(=O)C=CC2=O
inactive: dose: 6.25 mg/kg/injection, schedule: Q01DX009 (ip), vehicle: water 94 % of control | dose: 12.5 mg/kg/injection, schedule: Q01DX009 (ip), vehicle: water 92 % of control | [13] 99 % of control | [14] 90 % of control | [15] 95 % of control

NC(CSSc1ccccc1)=NCC12CC3CC(CC(C3)C1)C2
inactive: dose: 10.0 mg/kg/injection, schedule: Q01DX001 (ip), vehicle: carboxymethylcellulose (CMC) 96 % of control | dose: 20.0 mg/kg/injection, schedule: Q01DX001 (ip), vehicle: carboxymethylcellulose (CMC) 98 % of control

Cc1nc2ccc(Cl)c(Cl)c2s1
inactive: [10] 106 % of control | [11] 104 % of control | [12] 100 % of control

O=C(NSN1CCOCC1)c1ccccc1
inactive: [1] 102 % of control | [2] 98 % of control

O=C1CCN2C=CC=CC2=N1
inactive: [16] 98 % of control | dose: 100.0 mg/kg/injection, schedule: Q04DX003 (ip), vehicle: saline 100 % of control | [17] 93 % of control | dose: 200.0 mg/kg/injection, schedule: Q04DX003 (ip), vehicle: saline 101 % of control | [18] 97 % of control | dose: 400.0 mg/kg/injection, schedule: Q04DX003 (ip), vehicle: saline 106 % of control

C1=C(c2ccccc2)N=C(c2ccccc2)C2C(c3ccccc3)N2C1c1ccccc1 (stereo not drawn)
inactive: dose: 100.0 mg/kg/injection, schedule: Q01DX001 (ip), vehicle: Klucel (hydroxypropylcellulose) (HPC) 87 % of control | dose: 200.0 mg/kg/injection, schedule: Q01DX001 (ip), vehicle: Klucel (hydroxypropylcellulose) (HPC) 91 % of control

CC(C)(C)N1CCC1C(=O)NN (stereo not drawn)
inactive: [19] 96 % of control | [16] 93 % of control | [17] 93 % of control

CCNC(=O)NC(=O)CN1CCOCC1
inactive: dose: 100.0 mg/kg/injection, schedule: Q04DX003 (ip), vehicle: saline sonified 100 % of control | dose: 200.0 mg/kg/injection, schedule: Q04DX003 (ip), vehicle: saline sonified 102 % of control | dose: 400.0 mg/kg/injection, schedule: Q04DX003 (ip), vehicle: saline sonified 100 % of control

CSCSCC(CO)NS(=O)(=O)c1ccc(C)cc1 (stereo not drawn)
inactive: [4] 107 % of control | [20] 103 % of control | [6] 109 % of control | [7] 97 % of control | dose: 400.0 mg/kg/injection, schedule: Q01DX009 (ip), vehicle: saline with Tween-80 98 % of control | [9] 102 % of control

Cc1ccc(S(=O)(=O)OC2COC3C2OC2OC(C)(C)OC23)cc1 (stereo not drawn)
inactive: [20] 112 % of control | [7] 101 % of control | [9] 106 % of control

CCCCS(=O)(=O)Oc1ccc(N)c([N+](=O)[O-])c1
inactive: [20] 101 % of control | [7] 101 % of control | [9] 88 % of control

C/C=C1/C(=O)Oc2ccccc21
inactive: [19] 97 % of control | [16] 102 % of control | [17] 94 % of control

CN(C)C(=S)SCc1c(Cl)c(Cl)c(Cl)c(Cl)c1Cl
inactive: [21] 105 % of control | [22] 100 % of control | [23] 94 % of control

CCN(CC)C(=O)O/N=C(/C)c1ccccc1
inactive: dose: 100.0 mg/kg/injection, schedule: Q01DX001 (ip), vehicle: other 96 % of control | dose: 200.0 mg/kg/injection, schedule: Q01DX001 (ip), vehicle: other 91 % of control

CCCCCCCCCCCCCCCC(N)=O
inactive: [24] 93 % of control | [21] 90 % of control | [25] 102 % of control | [22] 87 % of control | [26] 94 % of control | [23] 98 % of control

O=NN1CCCNCC1
inactive: [13] 104 % of control | [14] 111 % of control | [15] 106 % of control | dose: 200.0 mg/kg/injection, schedule: Q01DX009 (ip), vehicle: water 101 % of control | dose: 400.0 mg/kg/injection, schedule: Q01DX009 (ip), vehicle: water 112 % of control

CSc1cc2c(c(SC)c1[N+](=O)[O-])C(=O)c1ccccc1-2
inactive: [3] 102 % of control | [5] 98 % of control | [8] 102 % of control

COc1ccc(N2CCN(c3c4c(nc5ccccc35)CCCCC4)CC2)cc1
inactive: [27] 95 % of control | [28] 106 % of control | [29] 101 % of control

Cc1cccc(Cl)c1NC(=O)N(Cc1ccccc1)Cc1ccccc1
inactive: [24] 100 % of control | [25] 105 % of control | [26] 97 % of control

CCCCCCCCCCCCCCCCCC(=O)N/N=C/C(C=C=C(C)C)(CC)CCCC (stereo not drawn)
inactive: [24] 101 % of control | [25] 96 % of control | [26] 96 % of control

Nc1cc(S(=O)(=O)O)cc2cc(S(=O)(=O)O)cc(S(=O)(=O)O)c12
inactive: [16] 107 % of control | [17] 104 % of control | [18] 100 % of control

CCOC(=O)NCCO
inactive: [27] 103 % of control | [28] 95 % of control | [29] 97 % of control

N#CCCC1C(C#N)C2CC1C1C3CCC(C3)C21 (stereo not drawn)
inactive: dose: 100.0 mg/kg/injection, schedule: Q01DX009 (ip), vehicle: other 100 % of control | dose: 200.0 mg/kg/injection, schedule: Q01DX009 (ip), vehicle: other 101 % of control | dose: 400.0 mg/kg/injection, schedule: Q01DX009 (ip), vehicle: other 90 % of control

CCCOP(=O)(OCCC)C(OC(=O)C(C)(C)Br)=C(C)C
inactive: [20] 100 % of control | [7] 100 % of control | [9] 100 % of control

Cc1ccc(C)c(NC(=O)Oc2ccccc2F)c1
inactive: [24] 101 % of control | [21] 98 % of control | [25] 91 % of control | [22] 113 % of control | [23] 101 % of control

COP(S)(=N/N=C/c1ccccn1)OC
inactive: dose: 12.5 mg/kg/injection, schedule: Q04DX003 (ip), vehicle: saline with Tween-80 104 % of control | dose: 25.0 mg/kg/injection, schedule: Q04DX003 (ip), vehicle: saline with Tween-80 95 % of control

CCC1OCCN1C(C)C (stereo not drawn)
inactive: dose: 26.0 mg/kg/injection, schedule: Q01DX Z (ip), vehicle: other 105 % of control | dose: 90.0 mg/kg/injection, schedule: Q01DX Z (ip), vehicle: other 111 % of control | [27] 102 % of control and 104 % of control | dose: 135.0 mg/kg/injection, schedule: Q01DX Z (ip), vehicle: other 95 % of control | [28] 96 % of control and 104 % of control | [29] 92 % of control and 93 % of control

Cc1nccc2c1[nH]c1cc(N)ccc12.[Cl][Sn][Cl]
inactive: dose: 5.0 mg/kg/injection, schedule: Q04DX003 (ip), vehicle: saline with Tween-80 102 % of control | dose: 10.0 mg/kg/injection, schedule: Q04DX003 (ip), vehicle: saline with Tween-80 94 % of control | dose: 20.0 mg/kg/injection, schedule: Q04DX003 (ip), vehicle: saline with Tween-80 96 % of control

N#CC(C(N)=O)C1CC(=O)Oc2ccccc21 (stereo not drawn)
inactive: dose: 50.0 mg/kg/injection, schedule: Q01DX009 (ip), vehicle: Klucel (hydroxypropylcellulose) (HPC) 100 % of control | [24] 105 % of control | [25] 100 % of control
